# Assay results reported in ChEMBL document CHEMBL4706683 (J Med Chem, 2021).
# Active and inactive are the calls of the source. The rule behind the calls is not given here.
# Legend:
# [1] = Clearance in mouse liver microsomes incubated upto 45 mins in presence of NADPH by LC-MS/MS analysis; format: ADME, Microsome; conditions: read-out: CLH
# Plasmodium falciparum [2] = experiment: Antiplasmodial activity against Plasmodium falciparum C2A infected in human erythrocytes assessed as reduction in parasite growth incubated for 72 hrs by Giemsa staining based light microscopic method; format: functional, organism-based; conditions: Erythrocyte
# [3] = Toxicity in Balb/c mouse infected with blood stage Plasmodium yoelii assessed as recrudescence at 10 to 30 mg/kg, ip QD for 5 consecutive days and measured on day 20; format: organism-based; conditions: in vivo, 120 h, dose 10-30 mg/kg, time 5 day
# Plasmodium falciparum [4] = experiment: Antiplasmodial activity against Plasmodium falciparum CP286 infected in human erythrocytes assessed as reduction in parasite growth incubated for 72 hrs by Giemsa staining based light microscopic method; format: functional, organism-based; conditions: CP286, Erythrocyte
# [5] = Toxicity in Balb/c mouse infected with blood stage Plasmodium yoelii assessed as animal death at 10 to 30 mg/kg, ip QD for 5 consecutive days and measured on day 6; format: organism-based; conditions: in vivo, 120 h, dose 10-30 mg/kg, time 5 day
# [6] = Selectivity index, ratio of IC50 for cytotoxicity against human HEK293T cells assessed to IC50 for antiplasmodial activity against synchronized ring stage Plasmodium falciparum 3D7 infected in human erythrocytes; format: toxicity, cell-based; conditions: read-out: Ratio IC50
# [7] = Selectivity index, ratio of IC50 for cytotoxicity against human HepG2 cells assessed to IC50 for antiplasmodial activity against synchronized ring stage Plasmodium falciparum 3D7 infected in human erythrocytes; format: toxicity, cell-based; conditions: read-out: Ratio IC50
# Plasmodium yoelii = experiment: Antiplasmodial activity against blood stage Plasmodium yoelii infected in Balb/c mouse assessed as reduction in parasitemia at 10 to 30 mg/kg, ip QD for 5 consecutive days and measured on day 20 by microscopic analysis; format: functional, organism-based; conditions: dose 10-30 mg/kg, time 5.0 day
# [8] = Half life in mouse liver microsomes incubated upto 45 mins in presence of NADPH by LC-MS/MS analysis; format: ADME, Microsome
# Plasmodium falciparum [9] = experiment: Antiplasmodial activity against artemisinin-resistant Plasmodium falciparum 6218 infected in human erythrocytes assessed as reduction in parasite growth incubated for 72 hrs by Giemsa staining based light microscopic method; format: functional, organism-based; conditions: Plasmodium falciparum, 6218, Erythrocyte
# Plasmodium falciparum [10] = experiment: Antiplasmodial activity against synchronized ring stage Plasmodium falciparum Dd2 infected in human erythrocytes assessed as reduction in parasite growth incubated for 72 hrs by Giemsa staining based light microscopic method; format: functional, organism-based; conditions: Dd2, Erythrocyte
# Plasmodium falciparum [11] = experiment: Antiplasmodial activity against artemisinin-resistant ring stage Plasmodium falciparum 6320 infected in human erythrocytes assessed as reduction in parasite growth incubated for 72 hrs by Giemsa staining based light microscopic method; format: functional, organism-based; conditions: Plasmodium falciparum, 6320, Erythrocyte
# Plasmodium falciparum [12] = experiment: Antiplasmodial activity against Plasmodium falciparum GB4 infected in human erythrocytes assessed as reduction in parasite growth incubated for 72 hrs by Giemsa staining based light microscopic method; format: functional, organism-based; conditions: GB4, Erythrocyte
# HepG2 = experiment: Cytotoxicity against human HepG2 cells assessed as reduction in cell viability incubated for 72 hrs by cell titer glo assay; format: cell-based; conditions: HepG2, 72 h
# Plasmodium falciparum [13] = experiment: Antiplasmodial activity against synchronized ring stage Plasmodium falciparum 3D7 infected in human erythrocytes assessed as reduction in parasite growth incubated for 72 hrs by Giemsa staining based light microscopic method; format: functional, organism-based; conditions: 3D7, Erythrocyte
# HEK-293T = experiment: Cytotoxicity against human HEK293T cells assessed as reduction in cell viability incubated for 72 hrs by cell titer glo assay; format: cell-based
# [14] = Apparent volume of distribution during terminal phase in Balb/c mouse at 10 mg/kg, po administered as single dose measured upto 24 hrs by LC-MS/MS analysis; format: ADME, organism-based; conditions: in vivo
# Plasmodium falciparum [15] = experiment: Antiplasmodial activity against artemisinin-resistant Plasmodium falciparum 6320 assessed as reduction in parasite survival at 700 nM incubated for 6 hrs followed by compound washout thrice and further cultured in compound free medium for 66 hrs by RSA; format: functional, organism-based
# Plasmodium berghei = experiment: Antiplasmodial activity against liver stage Plasmodium berghei infected in Balb/c mouse assessed as reduction in parasitemia at 30 mg/kg, ip administered as single dose by microscopic analysis; format: functional, organism-based
# [16] = Inhibition of recombinant full length C-terminal His/FLAG-tagged Plasmodium falciparum HDAC1 expressed in baculovirus infected sf9 insect cells using fluorogenic […] as substrate preincubated for 1.5 hrs followed by substrate addition and measured after 30 mins by HDAC-GloI/II assay
# Plasmodium falciparum [17] = experiment: (§1) Antimalarial activity against synchronized schizont stage transgenic Plasmodium falciparum 3D7 with C-terminal glmS-fused HDAC2 knockdown assessed as parasite growth inhibition pretreated with glucosamine followed by compound treatment and incubated for 4 hrs followed by compound washout for thrice and subsequent culturing for 68 hrs by SYBR Green 1 staining based analysis; format: functional, organism-based
# Plasmodium falciparum [18] = experiment: as §1, with “3xTY1-fused HDAC1” for “glmS-fused HDAC2”; format: functional, organism-based
# Plasmodium falciparum [19] = experiment: Inhibition of Plasmodium falciparum HDAC assessed as hyperacetylation of histone H3 at 20 times IC50 incubated for 4 hrs by Western blot analysis
# Plasmodium falciparum [20] = experiment: Antiplasmodial activity against schizont stage Plasmodium falciparum 3D7 infected in human erythrocytes assessed as reduction in parasitemia at 10 times IC50 incubated for 12 hrs followed by compound washout and measured at 96 hrs post infection by […] analysis; format: functional, organism-based; conditions: Erythrocyte
# Plasmodium falciparum [21] = experiment: Antiplasmodial activity against synchronized ring stage Plasmodium falciparum 3D7 infected in human erythrocytes assessed as new ring stage formation at 10 times IC50 incubated for 12 hrs followed by compound washout and measured at 50 hrs by […] analysis; format: functional, organism-based; conditions: Erythrocyte
# [22] = Cmax in Balb/c mouse at 5 mg/kg, ip administered as single dose measured upto 24 hrs by LC-MS/MS analysis; format: ADME, organism-based; design: route intraperitoneal, dose 5 mg/kg, time <=24; conditions: in vivo
# Plasmodium falciparum [23] = experiment: Antiplasmodial activity against artemisinin-resistant Plasmodium falciparum 6218 assessed as reduction in parasite survival at 700 nM incubated for 6 hrs followed by compound washout thrice and further cultured in compound free medium for 66 hrs by RSA; format: functional, organism-based
# [24] = AUC (0 to infinity) in Balb/c mouse at 10 mg/kg, po administered as single dose measured upto 24 hrs by LC-MS/MS analysis; format: ADME, organism-based; design: route oral, dose 10 mg/kg, time <=24; conditions: in vivo
# Plasmodium falciparum [25] = experiment: as §1, with “3xTY1-fused” for “glmS-fused”; format: functional, organism-based
# [26] = Toxicity in Balb/c mouse infected with sporozoites liver stage Plasmodium berghei assessed as animal death at 30 mg/kg, ip administered as single dose and measured after 2 hrs; format: organism-based; conditions: in vivo
# [27] = Apparent clearance during terminal phase in Balb/c mouse at 5 mg/kg, ip administered as single dose measured upto 24 hrs by LC-MS/MS analysis; format: ADME, organism-based; conditions: Balb/c, in vivo, read-out: CLz/F (converted)
# [28] = Apparent volume of distribution during terminal phase in Balb/c mouse at 5 mg/kg, ip administered as single dose measured upto 24 hrs by LC-MS/MS analysis; format: ADME, organism-based; conditions: Balb/c, in vivo, read-out: Vz/F
structure (smiles),measurement,setting,value
Cl.Cn1cc(CN2CCC3(CCN(c4ncc(C(=O)NO)cn4)CC3)C2)c2ccncc21,CLint scaled,[1],29.7 mL/min/kg
same,IC50,Plasmodium falciparum [2],4.9 nM
same,Activity,[3],Toxic
same,IC50,Plasmodium falciparum [4],5.7 nM
same,Activity,[5],Non-Toxic
same,selectivity ratio,[6],180
same,selectivity ratio,[7],265
same,Activity,Plasmodium yoelii,inactive
same,half-life,[8],3.06 h
same,IC50,Plasmodium falciparum [9],3.8 nM
same,IC50,Plasmodium falciparum [10],5.6 nM
same,IC50,Plasmodium falciparum [11],3.9 nM
same,IC50,Plasmodium falciparum [12],4.4 nM
same,IC50,HepG2,792 nM
same,IC50,Plasmodium falciparum [13],3 nM
same,IC50,HEK-293T,537 nM
Cl.Cn1cc(CNCC2CCN(c3ncc(C(=O)NO)cn3)CC2)c2ccccc21 [QUISINOSTAT HYDROCHLORIDE],Vz/F,[14],4172 L/kg
same,Activity,Plasmodium falciparum [15],Active
same,Activity,Plasmodium berghei,inactive
same,IC50,[16],0.003 nM
same,CLint scaled,[1],410 mL/min/kg
same,IC50,Plasmodium falciparum [17],23.7 nM
same,IC50,Plasmodium falciparum [2],2.53 nM
same,Activity,[5],Toxic
same,IC50,Plasmodium falciparum [18],12.4 nM
same,inhibition,Plasmodium falciparum [19],Active
same,Activity,Plasmodium falciparum [20],Active
same,Activity,Plasmodium falciparum [21],Active
same,Cmax,[22],88.7 ng/mL
same,Activity,Plasmodium falciparum [23],Active
same,Activity,Plasmodium yoelii,inactive
same,AUC(0-inf),[24],5.98 ng·h/mL
same,IC50,Plasmodium falciparum [25],17.2 nM
same,Activity,[26],Toxic
same,IC50,Plasmodium falciparum [10],7.09 nM
same,IC50,Plasmodium falciparum [11],1.62 nM
same,CL/F,[27],462 mL/min/kg
same,IC50,Plasmodium falciparum [12],1.7 nM
same,Vd/F,[28],245 L/kg
same,IC50,HepG2,42 nM
same,IC50,Plasmodium falciparum [13],5.2 nM
same,IC50,HEK-293T,48 nM
